Data from patent CN111686108A, “表小檗碱在制备抗幽门螺旋杆菌感染药物中的应用” (Southwest University, priority 2020, dated 2020).
≈ marks a conversion by molar mass, not a printed value. Where two headings read alike, the source gives them in different places. Values belong to the compound of their own block, whether it stands above or below them.

Columns and labels:
[1] = test system: Helicobacter pylori 11637 [幽门螺旋杆菌(11637)]; assay: MIC determination by two-fold (倍半) dilution on MH agar, single drugs and mixed drugs, H. pylori 11637; format: cell-based; settings: for MIC: Helicobacter pylori
[2] = target: aldose reductase [醛糖还原酶] (Homo sapiens, UniProt P15121); settings: in words; background; cited from earlier work
[3] = target: cytochrome P450 isoform CYP2D6 [细胞色素P450亚型CYP2D6] (Homo sapiens, UniProt P10635); settings: in words; background; cited from earlier work
Chain of cytochrome P450 isoform CYP2D6 [细胞色素P450亚型CYP2D6] (P10635 whole entry, canonical isoform): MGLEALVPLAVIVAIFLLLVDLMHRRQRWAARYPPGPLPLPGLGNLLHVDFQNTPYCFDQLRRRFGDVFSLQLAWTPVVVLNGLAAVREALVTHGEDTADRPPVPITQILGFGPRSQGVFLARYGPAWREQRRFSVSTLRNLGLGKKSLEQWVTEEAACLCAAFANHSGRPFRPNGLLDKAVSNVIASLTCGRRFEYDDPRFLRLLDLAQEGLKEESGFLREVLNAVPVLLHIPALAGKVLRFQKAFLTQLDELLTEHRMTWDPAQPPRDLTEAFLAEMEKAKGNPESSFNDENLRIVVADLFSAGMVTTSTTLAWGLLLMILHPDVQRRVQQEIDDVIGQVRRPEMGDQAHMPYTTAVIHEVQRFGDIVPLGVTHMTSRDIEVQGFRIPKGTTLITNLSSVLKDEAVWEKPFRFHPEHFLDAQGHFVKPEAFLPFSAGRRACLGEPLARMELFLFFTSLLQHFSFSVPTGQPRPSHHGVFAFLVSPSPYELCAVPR

[4] = in words, background; cited from earlier work
[5] = target: BACE1 (Homo sapiens, UniProt P56817); settings: in words; background; cited from earlier work
Chain of BACE1 (P56817 46-501, species assumed): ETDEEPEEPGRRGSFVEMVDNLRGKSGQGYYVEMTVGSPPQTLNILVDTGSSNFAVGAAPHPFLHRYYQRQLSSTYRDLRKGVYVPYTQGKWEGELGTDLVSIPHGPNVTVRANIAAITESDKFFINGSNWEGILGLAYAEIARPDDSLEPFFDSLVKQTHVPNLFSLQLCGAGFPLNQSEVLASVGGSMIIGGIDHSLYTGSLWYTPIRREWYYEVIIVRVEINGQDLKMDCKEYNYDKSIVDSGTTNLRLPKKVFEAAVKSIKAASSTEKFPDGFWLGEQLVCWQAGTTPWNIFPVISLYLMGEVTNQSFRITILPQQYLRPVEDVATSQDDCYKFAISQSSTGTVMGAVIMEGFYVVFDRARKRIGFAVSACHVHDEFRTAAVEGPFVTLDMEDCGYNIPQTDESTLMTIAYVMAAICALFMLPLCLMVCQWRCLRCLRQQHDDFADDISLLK

[6] = test system: α receptor [α受体]; settings: in words; background; cited from earlier work
[7] = drug alone, H. pylori 11637, MH agar, 85%N2, 10%CO2, 5%O2, 48~72h, read-out: MIC

Compound: COc1ccc2cc3[n+](cc2c1OC)CCc1cc2c(cc1-3)OCO2.[Cl-] [BBR, 小檗碱盐酸盐]
MIC ([1]; 72 h): 50 mg/L
synergistic effect ([1]; in words, combined with omeprazole (奥美拉唑), from table 1): 有一定的协同作用

Compound: COc1cc2c(cc1OC)-c1cc3ccc4c(c3c[n+]1CC2)OCO4 [e-BBR, 表小檗碱]
inhibition of aldose reductase activity [2]: 抑制醛糖还原酶活性
MIC [1, 7]: 100 mg/L
anti-Hp activity ([1]; in words, compared with berberine (小檗碱), from table 1): 低于小檗碱
inhibitory activity on CYP2D6 [3]: 较强的抑制活性
in vitro hypoglycaemic activity [4]: 体外降血糖活性
BACE1 inhibitory activity [5]: 非竞争性BACE1抑制活性
α receptor blocking effect [6]: α受体阻断作用

Compound: CC[C@H]1OC(=O)[C@H](C)[C@@H](O[C@H]2C[C@@](C)(OC)[C@@H](O)[C@H](C)O2)[C@H](C)[C@@H](O[C@@H]2O[C@H](C)C[C@H](N(C)C)[C@H]2O)[C@](C)(OC)C[C@@H](C)C(=O)[C@H](C)[C@@H](O)[C@]1(C)O [克, 克拉霉素]
MIC [1, 7]: 0.1 mg/L (≈ 0.134 µM)

Compound: COc1ccc2[nH]c([S+]([O-])Cc3ncc(C)c(OC)c3C)nc2c1 (stereo not drawn) [奥, 奥美拉唑]
MIC [1, 7]: 100 mg/L (≈ 289 µM)

Compound: Cc1ncc([N+](=O)[O-])n1CCO [甲, 甲硝唑]
MIC [1, 7]: 1.56 mg/L (≈ 9.11 µM)

Second part, the compound after the results:

MIC [1, 7]: 1.56 mg/L (≈ 6.93 µM)
Compound: O=C1OCCN1/N=C/c1ccc([N+](=O)[O-])o1 [呋, 呋喃唑酮]

MIC [1, 7]: 3.1 mg/L (≈ 8.58 µM)
Compound: C[C@H]1COc2c(N3CCN(C)CC3)c(F)cc3c(=O)c(C(=O)O)cn1c23 [左, 左氧氟沙星]

MIC [1, 7]: 0.05 mg/L (≈ 0.137 µM)
Compound: CC1(C)S[C@@H]2[C@H](NC(=O)[C@H](N)c3ccc(O)cc3)C(=O)N2[C@H]1C(=O)O [阿, 阿莫西林]
